The results in this text go back to US7799775B2, “Pyrimidine derivatives” (ASKA Pharmaceutical Co., Ltd., priority 2004, dated 2010).

Where a name gives a salt, the structure may show the parent alone.

The target in one assay is T1, 5-HT3 receptor (Rattus norvegicus, UniProt P35563).
T1 construct: from tissue; host or cells: whole animal (SD male rats), serotonin-induced bradycardia
T1 sequence (P35563 24-483): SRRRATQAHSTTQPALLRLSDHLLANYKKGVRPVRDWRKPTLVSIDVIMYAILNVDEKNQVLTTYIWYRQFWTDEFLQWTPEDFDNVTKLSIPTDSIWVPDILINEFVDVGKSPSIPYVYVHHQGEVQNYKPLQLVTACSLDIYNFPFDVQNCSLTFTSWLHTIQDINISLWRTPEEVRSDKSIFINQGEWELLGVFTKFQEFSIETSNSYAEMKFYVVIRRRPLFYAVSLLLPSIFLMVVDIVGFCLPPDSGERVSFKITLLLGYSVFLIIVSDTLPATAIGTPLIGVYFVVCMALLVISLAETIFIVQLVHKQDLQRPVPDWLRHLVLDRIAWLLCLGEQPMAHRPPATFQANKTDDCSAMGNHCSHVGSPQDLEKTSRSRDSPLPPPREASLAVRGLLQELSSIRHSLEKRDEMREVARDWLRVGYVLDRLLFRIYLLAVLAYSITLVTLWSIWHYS
As to the kind of experiment: Measurement of 5-HT3 receptor antagonistic action on rats (in vivo): inhibition of serotonin-induced bradycardia (BJ reflex). As to conditions: anesthetized SD male rats, dose 1.0 mg/kg intravenous, serotonin 300 μg/kg 10 minutes later. Here is the method: (4) Measurement of 5-HT3 Receptor Antagonistic Action on Rats (in Vivo)
SD male rats (weighing 270-410 g) were anesthetized by peritoneal administration of 1.25 g/kg of urethane (as dissolved in distilled water), and then catheters for measuring blood pressure and heart rate were inserted into their left carotid artery and a catheter for administration of test compound was inserted into their […]. After their blood pressure and heart rate were stabilized, 300 μg/kg of 5-hydroxytryptamine creatinine sulfate (serotonin) was rapidly intravenously administered and thereby induced transient bradycardiac reaction (BC 1) was observed. When the blood pressure and heart rate were re-stabilized after the serotonic administration, the test compounds were intravenously administered to the rats. Ten minutes thereafter, 300 μg/kg of serotonin was once again rapidly intravenously administered and thereby induced transient bradycardiac reaction (BC 2) was observed. Percent inhibition of bradycardia manifestation of each test compound, i.e., BJ reflex inhibition, can be calculated according to the following expression: […]

The target in the next assay is T2, human 5-HT1A receptor (Homo sapiens, UniProt P08908).
T2 construct: purchased Packard Bioscience; host or cells: CHO cells (membrane preparation)
T2 sequence (P08908 1-422): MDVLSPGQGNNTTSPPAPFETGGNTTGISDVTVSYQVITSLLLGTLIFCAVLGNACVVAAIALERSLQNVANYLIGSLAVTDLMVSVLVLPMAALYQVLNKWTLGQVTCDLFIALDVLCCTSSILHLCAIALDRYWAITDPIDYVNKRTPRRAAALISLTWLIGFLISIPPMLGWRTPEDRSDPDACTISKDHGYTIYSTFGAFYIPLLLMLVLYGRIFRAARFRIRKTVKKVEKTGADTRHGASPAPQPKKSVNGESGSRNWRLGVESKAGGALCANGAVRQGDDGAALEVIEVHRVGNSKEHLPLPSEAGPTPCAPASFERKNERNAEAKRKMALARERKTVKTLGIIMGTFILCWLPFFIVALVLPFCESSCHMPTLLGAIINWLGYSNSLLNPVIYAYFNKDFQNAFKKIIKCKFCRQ
As to the kind of experiment: Affinity measurement of the compounds to human 5-HT1A receptor (in vitro), [3H]8-OH-DPAT binding. Conditions: test compound 100 nmols/L; [3H]8-OH-DPAT 0.25 nmols/L; CHO cell membrane expressing human 5-HT1A receptor; read-out: Percent Inhibition (%) on Each Receptor's Binding at 10^−7M, 5-HT1A. The gist of the method: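 Membranes from CHO cells expressing human 5-HT1A were incubated 60 min at 27 °C with 0.25 nmol/L [3H]8-OH-DPAT and compound in Tris/MgSO4/EDTA/ascorbate buffer, pH 7.4. Bound radioactivity was collected on PEI-soaked GF/C filters and counted; percent inhibition was corrected for non-specific binding defined with 10 μmol/L 8-OH-DPAT.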

In the next assay the target is T3, human 5-HT3 receptor (Homo sapiens, UniProt P46098).
T3 construct: purchased BIOLINKS K.K; host or cells: HEK-293 cells (membrane preparation)
T3 sequence (P46098 24-478): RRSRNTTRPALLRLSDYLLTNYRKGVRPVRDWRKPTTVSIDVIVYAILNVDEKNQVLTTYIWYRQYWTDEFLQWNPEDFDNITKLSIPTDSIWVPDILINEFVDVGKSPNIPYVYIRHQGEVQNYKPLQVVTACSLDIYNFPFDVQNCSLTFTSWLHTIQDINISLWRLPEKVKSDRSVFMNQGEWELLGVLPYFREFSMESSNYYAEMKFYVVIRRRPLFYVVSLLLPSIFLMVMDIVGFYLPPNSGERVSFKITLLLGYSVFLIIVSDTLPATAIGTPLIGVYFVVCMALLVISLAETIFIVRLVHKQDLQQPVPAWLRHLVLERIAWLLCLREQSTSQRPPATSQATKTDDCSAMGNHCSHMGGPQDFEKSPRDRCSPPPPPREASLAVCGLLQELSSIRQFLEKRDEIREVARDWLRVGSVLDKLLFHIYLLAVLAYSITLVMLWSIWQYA
Kind of assay: Measurement of affinity to human 5-HT3 receptor (in vitro), [3H]BRL-43694 binding. As to conditions: test compound 100 nmols/L; [3H]BRL-43694 0.5 nmols/L; HEK-293 cell membrane expressing human 5-HT3 receptor; read-out: Percent Inhibition (%) on Each Receptor's Binding at 10^−7M, 5-HT3. The gist of the method: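 Membranes from HEK-293 cells expressing the receptor were incubated with 0.5 nmol/L radioligand and compound for 60 min at 25 °C in Tris/MgCl2/EDTA buffer, pH 7.5. Bound radioactivity was collected by filtration and counted. Percent inhibition was corrected for non-specific binding defined with 10 μmol/L tropisetron; compounds were tested at 100 nmol/L.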

Turning to `Oc1ccc2ccnc(N3CCNCC3)c2c1` [Production Example 95, 7-hydroxy-1-piperazin-1-ylisoquinoline hydrochloride], on 5-HT3 receptor, the “BC Inhibition (%)” value amounted to 96.0%.

Regarding `c1ccc2c(N3CCNCC3)nccc2c1` [Production Example 35, 1-piperazin-1-ylisoquinoline], on 5-HT3 receptor, the “BC Inhibition (%)” value is recorded as 94.6%.

Take `Cn1c(CCCCN2CCN(c3ccc4ccccc4n3)CC2)nc2c(cnn2C)c1=O` [Example 7-19, 1,5-dimethyl-6-[4-(4-quinolin-2-ylpiperazin-1-yl)butyl]-1,5-dihydropyrazolo[3,4-d]pyrimidin-4-one]: the inhibition (in general, the change of the read-out against control, counted positive when it falls) at 0.1 µM was 85% at human 5-HT1A receptor and 7.4% at human 5-HT3 receptor.

Consider `c1cc2occc2c(N2CCN3CCC[C@H]3C2)n1` [Production Example 105, 4-((8aS)-octahydropyrrolo[1,2-a]pyrazin-2-yl)furo[3,2-c]pyridine], for which the inhibition at 0.1 µM turned out to be 72.7% at human 5-HT1A receptor and 96.4% on human 5-HT3 receptor.

For the compound `O=c1c2ccccc2nc(CCCCN2CCN(c3ccc4ccccc4n3)CC2)n1Cc1ccccc1` [Example 7-16, 3-benzyl-2-[4-(4-quinolin-2-ylpiperazin-1-yl)butyl]-3H-quinazolin-4-one], the inhibition at 0.1 µM stood at 72.2% at human 5-HT1A receptor and 66.8% on human 5-HT3 receptor.

Regarding `CC1CCc2c(sc3nc(SCCCN4CCN(c5ccc6ccccc6n5)CC4)n(N)c(=O)c23)C1` (stereo not drawn) [Example 1-31, 3-amino-7-methyl-2-[3-(4-quinolin-2-ylpiperazin-1-yl)propylthio]-5,6,7,8-tetrahydro-3H-benzo[4,5]thieno[2,3-d]pyrimidin-4-one], the values for the inhibition at 0.1 µM at human 5-HT1A receptor and on human 5-HT3 receptor were 97.9% and 92.4%, respectively.

Regarding `Cc1sc2nc(CCCCN3CCN(c4ccc5ccccc5n4)CC3)n(C)c(=O)c2c1C` [Example 7-23, 3,5,6-trimethyl-2-[4-(4-quinolin-2-ylpiperazin-1-yl)butyl]-3H-thieno[2,3-d]pyrimidin-4-one], the inhibition at 0.1 µM at human 5-HT1A receptor turned out to be 77%; at human 5-HT3 receptor it was 74.8%.

With `Brc1cc2c(N3CCN4CCC[C@H]4C3)nccc2s1` [Production Example 106, 2-bromo-4-((8aS)-octahydropyrrolo[1,2-a]pyrazin-2-yl)thieno[3,2-c]-pyridine], the inhibition at 0.1 µM was 101% at human 5-HT1A receptor and 98.3% at human 5-HT3 receptor.

As to `CCCn1c(CCCCN2CCN(c3ccc4ccccc4n3)CC2)nc2c(c1=O)CCCC2` [Example 7-3, 3-propyl-2-[4-(4-quinolin-2-ylpiperazin-1-yl)butyl]-5,6,7,8-tetrahydro-3H-quinazolin-4-one], the inhibition at 0.1 µM on human 5-HT1A receptor amounted to 85.8%; on human 5-HT3 receptor, 84.7%.

For the compound `CC(C)n1c(CCCCN2CCN(c3ccc4ccccc4n3)CC2)nc2ccccc2c1=O` [Example 7-15, 3-isopropyl-2-[4-(4-quinolin-2-ylpiperazin-1-yl)butyl]-3H-quinazolin-4-one], the inhibition at 0.1 µM is 62.1% at human 5-HT1A receptor and 35% at human 5-HT3 receptor.

Regarding `CN1CCN(c2nccc3sc(Br)cc23)CC1` [Production Example 10, 2-bromo-4-(methylpiperazin-1-yl)thieno[3,2-c]pyridine], the inhibition at 0.1 µM on human 5-HT1A receptor is 98.5%; at human 5-HT3 receptor, 73.8%.

For the compound `CCCc1cc(=O)[nH]c(SCCCN2CCN(c3ccc4ccccc4n3)CC2)n1` [Example 2-14, 6-propyl-2-[3-(4-quinolin-2-ylpiperazin-1-yl)propylthio]-3H-pyrimidin-4-one], the inhibition at 0.1 µM at human 5-HT1A receptor was determined as 57.7%; at human 5-HT3 receptor, 51.9%.

On to `NNc1cccc2nc(CCCCN3CCN(c4ccc5ccccc5n4)CC3)n(N)c(=O)c12` [Example 4-28, 3-amino-5-hydrazino-2-[4-(4-quinolin-2-ylpiperazin-1-yl)butyl]-3H-quinazolin-4-one], for which the inhibition at 0.1 µM on human 5-HT1A receptor was 97.6%; at human 5-HT3 receptor, 45.1%.

For `Nn1c(CCCCN2CCN(c3ccc4ccccc4n3)CC2)nc2ccc(F)cc2c1=O` [Example 4-56, 3-amino-6-fluoro-2-[4-(4-quinolin-2-ylpiperazin-1-yl)butyl]-3H-quinazolin-4-one], the figures for the inhibition at 0.1 µM at human 5-HT1A receptor and at human 5-HT3 receptor were 96.9% and 50.2%, respectively.

Consider `Nn1c(CCCCN2CCN(c3ccc4ccccc4n3)CC2)nc2c(c1=O)CC(O)CC2` (stereo not drawn) [Example 4-70, 3-amino-6-hydroxy-2-[4-(4-quinolin-2-ylpiperazin-1-yl)butyl]-5,6,7,8-tetrahydro-3H-quinazolin-4-one], for which the inhibition at 0.1 µM at human 5-HT1A receptor was determined as 96.1%; at human 5-HT3 receptor, 92.5%.

With `NS(=O)(=O)Oc1ccc2ccnc(N3CCN4CCC[C@H]4C3)c2c1` [Production Example 87], the inhibition at 0.1 µM turned out to be 96.4% at human 5-HT1A receptor and 96.9% at human 5-HT3 receptor.

For the compound `Cc1cc(N2CCN(CCCNc3nc4c(c(=O)[nH]3)CCCC4)CC2)nc2ccccc12` [Example 5-3, 2-[3-[4-(4-methylquinolin-2-yl)piperazin-1-yl]propylamino]-5,6,7,8-tetrahydro-3H-quinazolin-4-one], the inhibition at 0.1 µM came to 76% on human 5-HT1A receptor and 74.5% at human 5-HT3 receptor.

With `c1cc2ccsc2c(N2CCN3CCCCC3C2)n1` (stereo not drawn) [Production Example 120, 7-octahydropyrido[1,2-a]pyrazin-2-ylthieno[2,3-c]pyridine], the inhibition at 0.1 µM on human 5-HT1A receptor amounted to 81%; on human 5-HT3 receptor, 99.4%.

As for `CN1CCN(c2nccc3ccc(N(C)C)cc23)CC1` [Production Example 89, 7-dimethylamino-1-(4-methylpiperazin-1-yl)isoquinoline], the results for the inhibition at 0.1 µM at human 5-HT1A receptor and on human 5-HT3 receptor were 92.1% and 83.5%, respectively.

On to `CC(CCCc1nc2c(c(=O)n1C)CCCC2)N1CCN(c2ccc3ccccc3n2)CC1` (stereo not drawn) [Example 7-14, 3-methyl-2-[4-(4-quinolin-2-ylpiperazin-1-yl)pentyl]-5,6,7,8-tetrahydro-3H-quinazolin-4-one], for which the inhibition at 0.1 µM at human 5-HT1A receptor came to 77.8%; on human 5-HT3 receptor, 16.7%.

For the compound `Nn1c(CCCCN2CCN(c3ccc4ccccc4n3)CC2)nc2sccc2c1=O` [Example 4-23, 3-amino-2-[4-(4-quinolin-2-ylpiperazin-1-yl)butyl]-3H-thieno[2,3-d]-pyrimidin-4-one], the figures for the inhibition at 0.1 µM on human 5-HT1A receptor and at human 5-HT3 receptor were 97% and 79.3%, respectively.

With `COc1ccc(-n2c(CCCCN3CCN(c4ccc5ccccc5n4)CC3)nc3ccccc3c2=O)cc1` [Example 7-17, 3-(4-methoxyphenyl)-2-[4-(4-quinolin-2-ylpiperazin-1-yl)butyl]-3H-quinazolin-4-one], the figures for the inhibition at 0.1 µM at human 5-HT1A receptor and at human 5-HT3 receptor were 50.6% and 1.9%, respectively.
